Measurements as given in ChEMBL document CHEMBL1201862, “PubChem BioAssay data set” (2004).
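How tested: cells in 96-well plates exposed to compound for 48 hours at five concentrations. Abbreviation: GI50, concentration required for 50% inhibition of growth.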 Active and inactive are the calls of the source. Cut-off read from the data, not from the text of the source: active = GI50 up to about 1.1 µM and inactive = higher.

Key:
Experiment in all cases: NCI-60 cell line screen, 48 h
CAKI-1 = system: CAKI-1
RPMI-8226 = system: RPMI-8226
SF-295 = system: SF-295
BT-549 = system: BT-549
LOX IMVI = system: LOX IMVI
A498 = system: A498
OVCAR-5 = system: OVCAR-5
OVCAR-4 = system: OVCAR-4
NCI/ADR-RES = system: NCI/ADR-RES
DU-145 = system: DU-145
MDA-MB-435 = system: MDA-MB-435
KM12 = system: KM12
UACC-62 = system: UACC-62
HCT-116 = system: HCT-116
SR = system: SR
CCRF-CEM = system: CCRF-CEM
SK-MEL-28 = system: SK-MEL-28
Malme-3M = system: Malme-3M
ACHN = system: ACHN

Compound | GI50 (CAKI-1) | GI50 (RPMI-8226) | GI50 (SF-295) | GI50 (BT-549) | GI50 (LOX IMVI) | GI50 (A498) | GI50 (OVCAR-5) | GI50 (OVCAR-4) | GI50 (NCI/ADR-RES) | GI50 (DU-145) | GI50 (MDA-MB-435) | GI50 (KM12) | GI50 (UACC-62) | GI50 (HCT-116) | GI50 (SR) | GI50 (CCRF-CEM) | GI50 (SK-MEL-28) | GI50 (Malme-3M) | GI50 (ACHN)
CC(=O)OC1O[C@@H](C(C)(C)O)CC[C@@H]1[C@H]1CC[C@@]2(C)C3=C(CC[C@]12C)[C@@]1(C)C[C@@H](OC(=O)CC(C)(O)CC(=O)O)[C@H](OC(C)=O)C(C)(C)C1CC3 (stereo partly drawn) | 15.8 µM (inactive) | 23.3 µM (inactive) | 17.5 µM (inactive) | 15.8 µM (inactive) | 17.7 µM (inactive) | 19.2 µM (inactive) | 18.3 µM (inactive) | 18 µM (inactive) | 18.1 µM (inactive) | 19.1 µM (inactive) | 16.8 µM (inactive) | 21.9 µM (inactive) | 27.7 µM (inactive) | > 10 µM (inactive) | 23.4 µM (inactive) | 20.8 µM (inactive) | 16.3 µM (inactive) | 17.4 µM (inactive) | 18 µM (inactive)
Cc1ccc([N+](=O)[O-])cc1S(=O)(=O)Nc1ccc(C2=NN(C(=O)c3ccccc3)C(c3cccs3)C2)cc1 (stereo not drawn) | 26.2 µM (inactive) | 31.6 µM (inactive) | 21 µM (inactive) | 25.3 µM (inactive) | 30.8 µM (inactive) | 10.5 µM (inactive) | 42.5 µM (inactive) | 25.6 µM (inactive) | 30.9 µM (inactive) | 34.2 µM (inactive) | 33.1 µM (inactive) | 32.7 µM (inactive) |  | 22.3 µM (inactive) | 28.8 µM (inactive) | 37.8 µM (inactive) | 63.5 µM (inactive) | 19.1 µM (inactive) | 25.4 µM (inactive)
CCOC(=O)C(Br)(C(N)=O)C1(O)OC(c2ccccc2)=C(Br)C1=O (stereo not drawn) | 19.6 µM (inactive) | 12.4 µM (inactive) | > 100 µM (inactive) | 19.2 µM (inactive) | 21.3 µM (inactive) | > 100 µM (inactive) | 21.1 µM (inactive) |  | 60.3 µM (inactive) | 44.6 µM (inactive) | 30.5 µM (inactive) | > 100 µM (inactive) | 27.8 µM (inactive) | 18.2 µM (inactive) | 18.2 µM (inactive) | 2.65 µM (inactive) | 80.9 µM (inactive) | 25.2 µM (inactive) | 17.5 µM (inactive)
CCNC(=O)Cc1nc2c(N)ncnc2n1C1OC(CO)C(O)C1O (stereo not drawn) | > 100 µM (inactive) | > 100 µM (inactive) | > 100 µM (inactive) | > 100 µM (inactive) | > 100 µM (inactive) | > 100 µM (inactive) |  | 23.5 µM (inactive) | > 100 µM (inactive) | > 100 µM (inactive) | > 100 µM (inactive) | > 100 µM (inactive) | > 100 µM (inactive) | > 100 µM (inactive) | > 100 µM (inactive) | > 10 µM (inactive) | > 100 µM (inactive) | > 100 µM (inactive) | > 100 µM (inactive)
O=C1c2cc(I)ccc2N2CCN=C2N1Cc1ccccc1 | > 100 µM (inactive) | 92.7 µM (inactive) | 73.1 µM (inactive) | 49.9 µM (inactive) | > 100 µM (inactive) | 0.723 µM (active) | > 100 µM (inactive) | > 100 µM (inactive) | 70.8 µM (inactive) | > 100 µM (inactive) | > 100 µM (inactive) | > 100 µM (inactive) |  | > 100 µM (inactive) | 84.5 µM (inactive) | > 100 µM (inactive) | > 100 µM (inactive) | > 100 µM (inactive) | 51.2 µM (inactive)
CC(=O)Oc1ccc(C)c2c1[C@H]1CC[C@]3(C)[C@@H](OC(C)=O)CC[C@H]3[C@@H]1CC2 |  | 19.4 µM (inactive) | 23.9 µM (inactive) | 17.5 µM (inactive) | 17 µM (inactive) | 17.6 µM (inactive) | > 100 µM (inactive) |  | 18.2 µM (inactive) | 26.9 µM (inactive) | 17.9 µM (inactive) | 18.6 µM (inactive) | 19.9 µM (inactive) | 17 µM (inactive) | 34.1 µM (inactive) | 21.9 µM (inactive) | 17.3 µM (inactive) | 15.7 µM (inactive) | 16.2 µM (inactive)
